1 compound from US20210236784A1, “DEVICE FOR ORAL DELIVERY OF ACTIVE AGENTS” (Entrega Inc., priority 2015, published 2021) can be followed below.

SMILES strings stand for the structures.

This data set in a line: Surgical Bioavailability Assay. It is filed as in vivo. To be noted: pig; octreotide; porcine surgical model, device/dosage form placed in the intestine (jejunum, ileum); from active agent levels in blood samples; FIG. 23. The method, then:
To determine bioavailability, mucoadhesive devices according to aspects of the present disclosure, as well as comparative dosage forms, are tested by a surgical model (Surgical Bioavailability Assay).
Surgical Bioavailability Assay. In the Surgical Bioavailability Assay, a porcine model is used, in which the animals undergo open surgery such that devices and/or dosage forms to be tested can be placed at regions of the intestine of interest, such as the jejunum and ileum. After administration of anesthesia, a ventral midline incision is made to gain access to the animal's abdominal cavity. The jejunum and ileum are exposed, and incisions are made to manually place the devices and/or dosage forms being tested. After placement of the device and/or dosage form is complete, the intestinal incisions are closed, and the midline incision can also be temporarily closed. Also, access can be made for blood collection via the carotid artery or jugular vein. The animal can be kept under anesthesia for up to 4 hours to allow for blood collection, such as at 5 mins, 15 mins, 30 mins, 60 mins, 90 mins, and 2 hours after oral dosage form placement. Blood samples can also be collected prior to the surgical procedure. The percent bioavailability of the active agent provided with the devices and/or dosage forms is determined on the basis of the active agent levels detected in these blood samples. […]

The bioavailability is the share of a dose that reaches the circulation, judged against a reference dose that is usually intravenous. Low values mean little systemic uptake, high ones much systemic uptake. `C[C@@H](O)[C@@H]1NC(=O)[C@H](CCCCN)NC(=O)[C@@H](Cc2c[nH]c3ccccc23)NC(=O)[C@H](Cc2ccccc2)NC(=O)[C@@H](NC(=O)[C@H](N)Cc2ccccc2)CSSC[C@@H](C(=O)N[C@H](CO)[C@@H](C)O)NC1=O` [octreotide solution, octreotide] registered a bioavailability of approximately 1%.
